In US20260078130A1, “NAMPT MODULATORS, PREPARATIONS, AND USES THEREOF” (SIRONAX LTD., priority 2022, published 2026):
Like-named read-outs stand apart in the source and are kept apart here.

Assays:
[1] = target: T1, human enzyme NAMPT (full length) (Homo sapiens, UniProt P43490); experiment: NMN fluorescence biochemical assay (stimulation of NMN synthesis by NAMPT); details: for EC50: concentration giving half-maximal activation, read-out: Enzymatic EC50; for Enzymatic Emax: fold change of maximal activation compared to DMSO
T1 construct: human enzyme NAMPT (full length)
T1 sequence (P43490 whole entry): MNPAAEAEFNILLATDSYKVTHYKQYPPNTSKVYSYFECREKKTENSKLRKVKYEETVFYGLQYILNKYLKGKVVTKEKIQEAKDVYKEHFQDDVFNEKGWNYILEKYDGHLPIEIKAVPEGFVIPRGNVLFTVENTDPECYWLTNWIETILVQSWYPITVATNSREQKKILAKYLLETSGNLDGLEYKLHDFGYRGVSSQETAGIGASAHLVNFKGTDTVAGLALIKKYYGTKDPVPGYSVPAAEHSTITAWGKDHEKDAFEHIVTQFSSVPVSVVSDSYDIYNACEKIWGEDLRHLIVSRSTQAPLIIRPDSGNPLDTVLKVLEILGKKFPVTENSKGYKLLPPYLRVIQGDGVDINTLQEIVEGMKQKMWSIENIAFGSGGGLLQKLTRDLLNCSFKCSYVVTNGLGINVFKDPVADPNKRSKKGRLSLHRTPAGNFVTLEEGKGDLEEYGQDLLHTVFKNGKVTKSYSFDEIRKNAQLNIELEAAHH
Outline: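 Full-length human NAMPT (100 nM) was preincubated 15 min at 37 °C with compound in 50 mM Tris-HCl pH 7.5, 10 mM MgCl2, 2 mM DTT, then reacted 1 h at 37 °C with 50 μM NAM, 100 μM PRPP, 4 mM ATP (stated solution concentrations). NMN was derivatised with acetophenone/KOH then formic acid and read at Ex/Em 382/445 nm; EC50 and Emax (fold over DMSO) reported.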

[2] = test system: endogenous NAMPT in U2OS cells; experiment: Cellular NAD+ modulation assay (NAD/NADH-Glo, U2OS cells); assay type: cell-based; details: Homo sapiens; for maximal fold induction: read-out: Cellular Emax
Outline: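 Endogenous NAMPT stimulation in U2OS cells treated with compound dilution series for 24 h at 37 °C. Cells lysed with DTAB base, acid-treated 15 min at 60 °C, neutralized, NAD+ read by NAD/NADH-Glo luminescence after 40 min at room temperature. EC50 and Emax (fold over DMSO) derived.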

[3] = NMN fluorescence assay, purified human NAMPT 100 nM
[4] = 24 hours incubation, cellular NAD+
[5] = NMN synthesis by purified human NAMPT (100 nM)
[6] = 24 hours incubation with compound

EC50 [1, 3] [nM]	Enzymatic Emax [1]	EC50 [2, 4] [nM]	EC50 [1, 5] [nM]	EC50 [2, 6] [nM]	SMILES	maximal fold induction [2, 4]	maximal fold induction [2, 6]
500 to 5000	B (3≥B>2)	500 to 5000			COc1ccc(CN2C(=O)c3ccccc3C2Cc2c(Cl)ccc(=O)n2C)cn1 (stereo not drawn) [Compound 609, 3-((3-chloro-1-methyl-6-oxo-1,6-dihydropyridin-2-yl)methyl)-2-((6-methoxypyridin-3-yl)methyl)isoindolin-1-one]	> 1.5	
< 500	A (A>3)	< 500			Cn1ncc(Cl)c1CC1c2c(F)cccc2C(=O)N1Cc1ccc2[nH]nnc2c1 (stereo not drawn) [Compound 338, 2-((1H-benzo[d][1,2,3]triazol-5-yl)methyl)-3-((4-chloro-1-methyl-1H-pyrazol-5-yl)methyl)-4-fluoroisoindolin-1-one]	> 1.5	
	A (A>3)		≥ 5000	5000 to 50000	O=C1c2ccccc2C(Cc2ncco2)N1Cc1ccc2[nH]c(=O)oc2c1 (stereo not drawn) [Compound 150, 6-((1-(oxazol-2-ylmethyl)-3-oxoisoindolin-2-yl)methyl)benzo[d]oxazol-2(3H)-one]		> 1.5
	B (3≥B>2)		≥ 5000	500 to 5000	CC(c1ccc(O)cc1)N1Cc2ccccc2C1=O (stereo not drawn) [Compound 45, 2-(1-(4-hydroxyphenyl)ethyl) isoindolin-1-one]		1.2 to 1.5
	A (A>3)		≥ 5000	5000 to 50000	O=C1c2ccncc2CN1Cc1ccc(O)cc1 [Compound 43, 2-(4-hydroxybenzyl)-2,3-dihydro-1H-pyrrolo[3,4-c]pyridin-1-one]		1.2 to 1.5
	A (A>3)		≥ 5000	5000 to 50000	CC1c2cc(CN3CC4(CNC4)C3)ccc2C(=O)N1Cc1ccc2[nH]c(=O)oc2c1 (stereo not drawn) [Compound 115, 6-((5-((2,6-diazaspiro[3.3]heptan-2-yl)methyl)-3-methyl-1-oxoisoindolin-2-yl)methyl) benzo[d]oxazol-2(3H)-one]		1.2 to 1.5
< 500	B (3≥B>2)	< 500			Cn1ncc(Cl)c1CC1c2ccccc2C(=O)N1Cc1cn[nH]c1 (stereo not drawn) [Compound 629, 2-((1H-pyrazol-4-yl)methyl)-3-((4-chloro-1-methyl-1H-pyrazol-5-yl)methyl)isoindolin-1-one]	1.2 to 1.5	
	B (3≥B>2)		< 500	< 500	Cc1ccc(C#N)c(CC2c3ccccc3C(=O)N2Cc2ccc3[nH]c(=O)oc3c2)c1 (stereo not drawn) [Compound 164, 4-methyl-2-((3-oxo-2-((2-oxo-2,3-dihydrobenzo[d]oxazol-6-yl)methyl)isoindolin-1-yl)methyl)benzonitrile]		> 1.5
	A (A>3)		500 to 5000	500 to 5000	O=C1c2ccccc2C(Cc2nnc(Cl)cc2Cl)N1Cc1ccc2[nH]c(=O)oc2c1 (stereo not drawn) [Compound 227, 6-((1-((4,6-dichloropyridazin-3-yl)methyl)-3-oxoisoindolin-2-yl)methyl)benzo[d]oxazol-2(3H)-one]		> 1.5
< 500	B (3≥B>2)	< 500			Cn1ncc(Cl)c1CC1c2cc(OC(F)F)ccc2C(=O)N1Cc1ccc2[nH]nnc2c1 (stereo not drawn) [Compound 421, 2-((1H-benzo[d][1,2,3]triazol-5-yl)methyl)-3-((4-chloro-1-methyl-1H-pyrazol-5-yl)methyl)-5-(difluoromethoxy)isoindolin-1-one]	> 1.5	
< 500	A (A>3)	500 to 5000			Cn1ncc(Cl)c1CC1c2cc(C3CCOCC3)ccc2C(=O)N1Cc1ccc2[nH]nnc2c1 (stereo not drawn) [Compound 398, 2-((1H-benzo[d][1,2,3]triazol-5-yl)methyl)-3-((4-chloro-1-methyl-1H-pyrazol-5-yl)methyl)-5-(tetrahydro-2H-pyran-4-yl)isoindolin-1-one]	> 1.5	
	A (A>3)		≥ 5000	500 to 5000	Cc1ocnc1CC1c2ccccc2C(=O)N1Cc1ccc2[nH]c(=O)oc2c1 (stereo not drawn) [Compound 231, 6-((1-((5-methyloxazol-4-yl)methyl)-3-oxoisoindolin-2-yl)methyl)benzo[d]oxazol-2(3H)-one]		> 1.5
	B (3≥B>2)		< 500	< 500	N#Cc1cccc(Br)c1CC1c2ccccc2C(=O)N1Cc1ccc2[nH]c(=O)oc2c1 (stereo not drawn) [Compound 200, 3-bromo-2-((3-oxo-2-((2-oxo-2,3-dihydrobenzo[d]oxazol-6-yl)methyl)isoindolin-1-yl)methyl)benzonitrile]		> 1.5
< 500	B (3≥B>2)	< 500			Cn1ncc(Cl)c1CC1c2scnc2C(=O)N1Cc1ccc(O)cc1 (stereo not drawn) [Compound 430, 6-((4-chloro-1-methyl-1H-pyrazol-5-yl)methyl)-5-(4-hydroxybenzyl)-5,6-dihydro-4H-pyrrolo[3,4-d]thiazol-4-one]	> 1.5	
500 to 5000	B (3≥B>2)	< 500			O=C1NCC2(CC(CN3C(=O)c4ccccc4C3Cc3c(Cl)nc4ccccn34)C2)O1 (stereo not drawn) [Compound 488, 2-((1-((2-chloroimidazo[1,2-a]pyridin-3-yl)methyl)-3-oxoisoindolin-2-yl)methyl)-5-oxa-7-azaspiro[3.4]octan-6-one]	> 1.5	
500 to 5000	B (3≥B>2)	< 500			COc1ccc(CN2C(=O)c3ccccc3C2Cc2c(C)ncnc2C#N)cc1 (stereo not drawn) [Compound 597, 5-((2-(4-methoxybenzyl)-3-oxoisoindolin-1-yl)methyl)-6-methylpyrimidine-4-carbonitrile]	> 1.5	
< 500	A (A>3)	< 500			Cn1ncc(Cl)c1CC1c2ccc(F)cc2C(=O)N1Cc1ccc2[nH]nnc2c1 (stereo not drawn) [Compound 340, 2-((1H-benzo[d][1,2,3]triazol-5-yl)methyl)-3-((4-chloro-1-methyl-1H-pyrazol-5-yl)methyl)-6-fluoroisoindolin-1-one]	> 1.5	
	A (A>3)		≥ 5000	500 to 5000	Cn1c2ccccc2c(=O)n1Cc1ccc(O)cc1 [Compound 23, 2-(4-hydroxybenzyl)-1-methyl-1,2-dihydro-3H-indazol-3-one]		> 1.5
	B (3≥B>2)		500 to 5000	5000 to 50000	O=C1c2ccccc2C(CCc2ccccc2)N1Cc1ccc2[nH]c(=O)oc2c1 (stereo not drawn) [Compound 114, 6-((1-oxo-3-phenethylisoindolin-2-yl)methyl)benzo[d]oxazol-2(3H)-one]		> 1.5
	A (A>3)		≥ 5000	500 to 5000	C[C@H]1c2ccccc2C(=O)N1Cc1ccc2[nH]c(=O)oc2c1 [Compound 56, (S)-6-((1-methyl-3-oxoisoindolin-2-yl)methyl)benzo[d]oxazol-2(3H)-one]		> 1.5
≥ 5000	B (3≥B>2)	500 to 5000			CSc1ccc(CN2C(=O)c3ccccc3C2Cc2c(Cl)cnn2C)cc1 (stereo not drawn) [Compound 542, 3-((4-chloro-1-methyl-1H-pyrazol-5-yl)methyl)-2-(4-(methylthio)benzyl)isoindolin-1-one]	1.2 to 1.5	
